Assay results from ChEMBL document CHEMBL4813957, “Antitubercular properties of thiazolidin-4-ones - A review” (Eur J Med Chem, 2021).
In brackets after ≈: the same amount, converted by molar mass. Counter-ions that a name gives are not always drawn.

How the values were obtained:
[1] = test system: Mycobacterium tuberculosis; experiment: Antimycobacterial activity against Mycobacterium tuberculosis H37Rv 27294 by microplate alamar blue assay; format: functional
[2] = Cytotoxicity against African green monkey Vero cells after 72 hrs by cell titer glo luminescent cell viability assay; format: cell-based; details: chlorocebus sabaeus
[3] = test system: Mycobacterium tuberculosis; experiment: Antimycobacterial activity against Mycobacterium tuberculosis H37Ra ATCC 25177 measured on 12th day by XTT reduction menadione assay; format: functional; details: H37Ra ATCC 25177, 288 h, time 12 day
[4] = Inhibition of Mycobacterium tuberculosis Pantothenate Synthetase expressed in Escherichia coli BL21(DE3) cells using beta-alanine as substrate
[5] = test system: Mycobacterium tuberculosis; experiment: Antimycobacterial activity against Mycobacterium tuberculosis H37Rv incubated for 7 days by microplate alamar blue assay; format: functional; details: 168 h, time 7 day
[6] = test system: Mycobacterium tuberculosis; experiment: Antimycobacterial activity against Mycobacterium tuberculosis by microplate alamar blue assay; format: functional
[7] = test system: Mycobacterium tuberculosis; experiment: Antimycobacterial activity against Mycobacterium tuberculosis H37Rv by Lowenstein-Jensen method; format: functional
[8] = test system: Mycobacterium tuberculosis; experiment: Antimycobacterial activity against Mycobacterium tuberculosis H37Rv assessed as mycobacterial growth inhibition at 12.5 ug/ml relative to control; format: functional; details: read-out: GI
[9] = test system: Mycobacterium tuberculosis; experiment: Antimycobacterial activity against Mycobacterium tuberculosis; format: functional
[10] = test system: Mycobacterium tuberculosis; experiment: Antimycobacterial activity against Mycobacterium tuberculosis H37Ra ATCC 25177 assessed as inhibition of bacteria at 30 ug/ml by XTT reduction menadione assay relative to control; format: functional
[11] = test system: Mycobacterium tuberculosis; experiment: Antimycobacterial activity against Mycobacterium tuberculosis H37Rv assessed as bacterial growth inhibition at 6.25 ug/ml by BACTEC MGIT method relative to control; format: functional
[12] = test system: Mycobacterium tuberculosis; experiment: Antimycobacterial activity against Mycobacterium tuberculosis H37Rv assessed as bacterial inhibition at 25 ug/ml by microplate alamar blue assay relative to control; format: functional
[13] = test system: Mycobacterium tuberculosis; experiment: Antimycobacterial activity against Mycobacterium tuberculosis H37Rv assessed as inhibition of bacteria at 12.5 ug/ml by microplate alamar blue assay relative to control; format: functional
[14] = test system: Mycobacterium tuberculosis; experiment: Antimycobacterial activity against Mycobacterium tuberculosis H37Rv measured after 12 to 28 days by Lowenstein-Jensen method; format: functional; details: time 12-28 day
[15] = test system: Mycobacterium tuberculosis; experiment: Antimycobacterial activity against Mycobacterium tuberculosis H37Rv assessed as growth inhibition at 12.5 ug/ml by BACTEC radiometric method relative to control; format: functional; details: read-out: GI
[16] = target: T1, Enoyl-[acyl-carrier-protein] reductase [NADH] (Mycobacterium tuberculosis, UniProt P9WGR1); experiment: Inhibition of Mycobacterium tuberculosis InhA
T1 sequence (P9WGR1 whole entry): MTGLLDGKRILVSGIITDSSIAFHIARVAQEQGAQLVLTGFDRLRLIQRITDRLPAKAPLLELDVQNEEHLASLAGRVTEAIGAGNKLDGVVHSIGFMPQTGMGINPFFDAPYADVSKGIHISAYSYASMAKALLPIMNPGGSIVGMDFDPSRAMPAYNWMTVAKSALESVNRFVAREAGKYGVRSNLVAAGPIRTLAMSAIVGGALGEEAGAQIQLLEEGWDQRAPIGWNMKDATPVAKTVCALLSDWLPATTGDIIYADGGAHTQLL

[17] = test system: Mycobacterium tuberculosis; experiment: Antimycobacterial activity against Mycobacterium tuberculosis ATCC 27286 assessed as zone of inhibition at 20 ug/ml; format: functional; details: read-out: IZ
[18] = test system: Mycobacterium tuberculosis; experiment: Antimycobacterial activity against Mycobacterium tuberculosis H37Rv incubated for 7 days by resazurin dye based assay; format: functional; details: 168 h, time 7 day
[19] = test system: Mycobacterium tuberculosis; experiment: Antimycobacterial activity against Mycobacterium tuberculosis H37Rv assessed as growth inhibition at 16 ug/ml measured after 12 to 28 days by Lowenstein-Jensen agar method relative to control; format: functional; details: time 12-28 day, read-out: GI
[20] = test system: Mycobacterium tuberculosis; experiment: Antimycobacterial activity against Mycobacterium tuberculosis H37Rv assessed as growth inhibition at 6.25 ug/ml by BACTEC radiometric method relative to control; format: functional; details: read-out: GI
[21] = test system: Mycobacterium tuberculosis; experiment: Antimycobacterial activity against Mycobacterium tuberculosis H37Ra ATCC 25177 by XTT Reduction Menadione assay; format: functional
[22] = test system: Mycobacterium tuberculosis; experiment: Antimycobacterial activity against Mycobacterium tuberculosis H37Rv incubated for 45 days by Lowenstein-Jensen method; format: functional; details: 1080 h, time 45 day
[23] = test system: Mycolicibacterium smegmatis; experiment: Antimycobacterial activity against Mycobacterium smegmatis ATCC 35797 incubated for 48 hrs by agar dilution method; format: functional
[24] = test system: Mycobacterium tuberculosis; experiment: Antimycobacterial activity against Mycobacterium tuberculosis H37Rv by filter paper disc diffusion method; format: functional
[25] = test system: Mycobacterium tuberculosis; experiment: Antimycobacterial activity against Mycobacterium tuberculosis H37Rv ATCC 27294 incubated for 5 days by microplate alamar blue assay; format: functional; details: H37Rv ATCC 27294, 120 h, time 5 day
[26] = test system: Mycobacterium tuberculosis; experiment: Antimycobacterial activity against Mycobacterium tuberculosis H37Rv ATCC27294 measured after 28 days by two-fold serial dilution method; format: functional; details: H37Rv ATCC 27294, 672 h, time 28 day
[27] = test system: Mycobacterium tuberculosis; experiment: Antimycobacterial activity against Mycobacterium tuberculosis H37Rv ATCC27294 incubated for 7 days by microplate alamar blue assay; format: functional; details: H37Rv ATCC 27294, 168 h, time 7 day
[28] = test system: Mycobacterium tuberculosis; experiment: Antimycobacterial activity against Mycobacterium tuberculosis H37Rv by Lowenstein-Jensen agar method; format: functional

Work on `CCN1C(=O)/C(=C/c2ccc(F)cc2)S/C1=N/NC(=O)c1ccncc1` yielded an IC90 [1] of 2.95 µg/mL (≈ 7.97 µM) and a CC50 at 72 h [2] of 9.69 µg/mL (≈ 26.2 µM).

Work on `O=C1CSC(c2ccc(OCc3cc4ccccc4n4nnnc34)cc2)N1c1ccc([N+](=O)[O-])cc1` (stereo not drawn) yielded an MIC [3] of 20.3 µg/mL (≈ 40.8 µM).

In the case of `COc1cc(/C=C2\SC(=S)N(CCC(=O)NNC(=O)c3ccncc3)C2=O)cc(OC)c1OC`, the IC50 [4] is reported as 350 nM and the MIC [5] is reported as 1.55 µM.

Work on `O=C(NN1C(=O)CSC1c1ccccc1O)c1coc2ccc3ccccc3c12` (stereo not drawn) yielded an MIC [6] of 50 µg/mL (≈ 124 µM).

`CN1C(=O)/C(=C/c2ccccc2F)S/C1=N/NC(=O)c1ccncc1` showed an IC90 [1] of 2.95 µg/mL (≈ 8.28 µM) and a CC50 at 72 h [2] of 15.5 µg/mL (≈ 43.6 µM).

`O=C(NN1C(=O)CSC1c1ccc(O)cc1)c1coc2ccc3ccccc3c12` (stereo not drawn) showed an MIC [6] of 50 µg/mL (≈ 124 µM).

Compound `COc1cc(C2SCC(=O)N2NC2=Nc3ccccc3Sc3ccccc32)cc(OC)c1OC` (stereo not drawn) has an MIC [7] of 125 µg/mL (≈ 253 µM).

Work on `CC1SC(c2ccc(O)cc2)N(Nc2nc(-c3ccccc3)c(C#N)c(=O)n2C)C1=O` (stereo not drawn) yielded an inhibition of growth at 12.5 µg/mL [8] of 44%.

`O=C(CCN1C(=O)/C(=C/c2ccc([N+](=O)[O-])cc2)SC1=S)NNC(=O)c1ccccc1` gave an IC50 [4] of 370 nM and an MIC [5] of 1.71 µM.

`Cc1nc(/N=C2\C(=O)Nc3ccccc32)sc1C(=O)NN1C(=O)CSC1c1ccc(Cl)cc1` (stereo not drawn) showed an MIC [9] of 0.78 µM (≈ 0.388 µg/mL).

With `Cc1nc(-c2cnccn2)sc1C(=O)NN1C(=O)CSC1c1ccccc1` (stereo not drawn) the inhibition at 30 µg/mL [10] was 71%.

`Cc1ccc(/C=C2\SC(NCCn3c(C)nc4ccccc4c3=O)=NC2=O)cc1` gave an inhibition at 6.25 µg/mL [11] of 99%.

`CCCCCCCCCCCCN1C(=O)C(CC(=O)O)SC12CCN(C(=O)C(N)Cc1ccccc1)CC2` (stereo not drawn) showed an inhibition at 25 µg/mL [12] of 97% and an inhibition at 12.5 µg/mL [13] of 94%.

For `CCc1ccc(CCOc2ccc(/C=C3\SC(=S)N(CC(=O)Nc4nc5ccc(C)cc5s4)C3=O)cc2)nc1`, the MIC [14] was 25 µg/mL (≈ 43.5 µM).

With `Cc1ccc(N2C(=O)CSC23C(=O)N(CN2CCOCC2)c2ccc(C)cc23)cc1` (stereo not drawn) the inhibition of growth at 12.5 µg/mL [15] was 90%.

`O=C(NN1C(=O)CSC1c1c[nH]c2ccccc12)c1ccncc1` (stereo not drawn) showed a Ki [16] of 641 nM and a zone of inhibition at 20 µg/mL [17] of 35 mm.

In the case of `Cc1nc(/N=C2\C(=O)Nc3ccccc32)sc1C(=O)NN1C(=O)CSC1c1ccccc1F` (stereo not drawn), the MIC [9] is reported as 0.78 µM (≈ 0.376 µg/mL).

Work on `O=C1C(CN2CCOCC2)SC(c2ccc(Cl)cc2)N1c1ccc(Cl)cc1` (stereo not drawn) yielded an MIC [18] of 25 µg/mL (≈ 59.1 µM).

With `COc1ccc(C(CNC(=O)CNN2C(=O)CSC2c2ccc(O)c(OC)c2)C2(O)CCCCC2)cc1` (stereo not drawn) the inhibition of growth at 16 µg/mL [19] was 99%.

In the case of `O=C(NN1C(=O)CSC1c1ccc([N+](=O)[O-])cc1)c1coc2ccc3ccccc3c12` (stereo not drawn), the MIC [6] is reported as 50 µg/mL (≈ 115 µM).

With `COc1ccc(C(=O)Nc2ccc(C(=O)NN3C(=O)CSC3c3ccc([N+](=O)[O-])o3)cc2)cc1` (stereo not drawn) the inhibition of growth at 6.25 µg/mL [20] was 98%.

Compound `Cc1nc2ccccc2c(=O)n1CCNC1=NC(=O)/C(=C/c2ccc([N+](=O)[O-])cc2)S1` has an inhibition at 6.25 µg/mL [11] of 99%.

With `O=C1NC(=S)S/C1=C\c1ccc([N+](=O)[O-])cc1` the IC90 [21] was 22.3 µg/mL (≈ 83.7 µM).

For `CC[C@@H](CO)NCCN[C@@H](CC)CO` [ETHAMBUTOL HYDROCHLORIDE], the MIC [22] was 1.45 µM.

`NNC(=O)c1ccncc1` [ISONIAZID] showed an MIC [23] of 12.5 µg/mL (≈ 91.1 µM), an MIC [24] of 1.25 µg/mL (≈ 9.11 µM) and an MIC [25] of 0.2 µg/mL (≈ 1.46 µM). For the same compound, the zone of inhibition at 20 µg/mL [17] was 31 mm, the MIC [22] was 0.64 µM (≈ 0.0878 µg/mL) and the MIC [26] was 0.72 µM (≈ 0.0987 µg/mL). The MIC [27] was 0.56 µg/mL (≈ 4.08 µM) and the MIC [5] was 1.6 µg/mL.

Work on `CO[C@H]1/C=C/O[C@@]2(C)Oc3c(C)c(O)c4c(O)c(c(/C=N/N5CCN(C)CC5)c(O)c4c3C2=O)NC(=O)/C(C)=C\C=C\[C@H](C)[C@H](O)[C@@H](C)[C@@H](O)[C@@H](C)[C@H](OC(C)=O)[C@@H]1C` [RIFAMPIN] yielded an MIC [24] of 2.5 µg/mL (≈ 3.04 µM), an MIC [25] of 1 µg/mL (≈ 1.22 µM) and an MIC [14] of 40 µg/mL (≈ 48.6 µM). For the same compound, the MIC [28] was 40 µg/mL (≈ 48.6 µM) and the MIC [26] was 0.24 µM (≈ 0.198 µg/mL).
